Measurements reported in ChEMBL document CHEMBL1201862, “PubChem BioAssay data set” (2004).
Calls of active or inactive are those of the source.

Legend:
[1] = biological target: Heat shock protein HSP 90-alpha (Homo sapiens, UniProt P07900); assay type: functional, organism-based
[2] = biological target: Hepatocyte nuclear factor 4-alpha (Homo sapiens, UniProt P41235); assay type: functional, cell-based;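 also: biochemical luminescence-based dose-response counterscreen measuring inhibition of HNF4 dimerization, run alongside a screen for blockers of ABHD5–perilipin-5 interaction; split luciferase complementation of HNF4 fusion proteins in cell lysate measuring dimerization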
Sequence of Hepatocyte nuclear factor 4-alpha (P41235 whole entry, the tested form may be a part): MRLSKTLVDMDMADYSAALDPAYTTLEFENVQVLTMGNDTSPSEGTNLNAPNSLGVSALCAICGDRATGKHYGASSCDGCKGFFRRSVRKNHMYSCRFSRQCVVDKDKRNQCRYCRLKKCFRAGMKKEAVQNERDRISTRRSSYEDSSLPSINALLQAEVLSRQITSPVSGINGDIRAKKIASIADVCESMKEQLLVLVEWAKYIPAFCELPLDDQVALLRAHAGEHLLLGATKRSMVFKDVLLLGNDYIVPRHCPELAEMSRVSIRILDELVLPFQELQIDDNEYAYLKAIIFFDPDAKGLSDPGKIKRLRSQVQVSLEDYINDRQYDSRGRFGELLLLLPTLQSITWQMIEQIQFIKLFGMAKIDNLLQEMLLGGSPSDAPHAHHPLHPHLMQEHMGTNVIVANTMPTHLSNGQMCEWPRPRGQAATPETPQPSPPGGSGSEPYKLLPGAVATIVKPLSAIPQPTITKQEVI

[3] = biological target: Nuclear receptor subfamily 5 group A member 2 (Homo sapiens, UniProt O00482); assay type: functional, cell-based;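 also: HEK293T cells transfected with LRH-1 and a StAR promoter luciferase reporter; potency for inhibitors that lower LRH-1 driven reporter light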
Sequence of Nuclear receptor subfamily 5 group A member 2 (O00482 whole entry): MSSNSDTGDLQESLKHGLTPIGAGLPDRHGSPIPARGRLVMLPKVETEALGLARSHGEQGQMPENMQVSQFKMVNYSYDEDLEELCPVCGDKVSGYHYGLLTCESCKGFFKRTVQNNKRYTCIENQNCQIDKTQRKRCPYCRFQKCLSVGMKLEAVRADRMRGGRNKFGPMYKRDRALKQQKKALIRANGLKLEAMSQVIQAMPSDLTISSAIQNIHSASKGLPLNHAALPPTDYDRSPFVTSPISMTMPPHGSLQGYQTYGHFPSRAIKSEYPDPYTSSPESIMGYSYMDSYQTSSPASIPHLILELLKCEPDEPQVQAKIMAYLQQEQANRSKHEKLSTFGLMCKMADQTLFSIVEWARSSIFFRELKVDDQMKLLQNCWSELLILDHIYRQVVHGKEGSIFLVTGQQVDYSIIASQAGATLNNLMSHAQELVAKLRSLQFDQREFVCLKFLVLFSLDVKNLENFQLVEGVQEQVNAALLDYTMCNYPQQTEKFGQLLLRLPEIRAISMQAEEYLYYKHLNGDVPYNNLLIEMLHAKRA

Steroidogenic factor 1 = Steroidogenic factor 1 (Homo sapiens, UniProt Q13285); assay: Counterscreen for inverse agonists of the liver receptor homolog-1 (LRH-1; NR5A2): Luminescence-based cell-based high throughput dose response assay to identify inverse agonists of the Steroidogenic Factor 1 Nuclear Receptor (SF1; NR5A1).; assay type: functional
Sequence of Steroidogenic factor 1 (Q13285 whole entry): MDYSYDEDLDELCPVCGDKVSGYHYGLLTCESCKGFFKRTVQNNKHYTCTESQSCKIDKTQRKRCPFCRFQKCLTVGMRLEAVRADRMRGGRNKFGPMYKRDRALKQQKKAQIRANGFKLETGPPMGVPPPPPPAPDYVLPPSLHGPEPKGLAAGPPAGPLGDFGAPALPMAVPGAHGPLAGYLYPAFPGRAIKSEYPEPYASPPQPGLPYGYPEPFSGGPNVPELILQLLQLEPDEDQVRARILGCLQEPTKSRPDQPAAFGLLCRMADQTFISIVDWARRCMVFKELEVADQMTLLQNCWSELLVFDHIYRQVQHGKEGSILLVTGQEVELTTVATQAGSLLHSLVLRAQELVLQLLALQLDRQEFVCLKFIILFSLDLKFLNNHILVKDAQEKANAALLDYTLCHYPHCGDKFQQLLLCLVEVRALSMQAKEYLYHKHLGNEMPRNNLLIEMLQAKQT

[4] = StAR promoter reporter inhibition counter-screen, dose response, counter-screen for LRH-1 inverse agonist project, cell-based, luminescence, luciferase reporter (AID 651969); assay type: functional
[5] = biological target: T1, Sentrin-specific protease 1 (Homo sapiens, UniProt Q9P0U3); assay: potency of human SENP1 inhibitors, dose response, biochemical, kinetic FRET (AID 651697); assay type: functional; conditions: read-out: IC50_Mean
T1 sequence (Q9P0U3 whole entry, the tested form may be a part): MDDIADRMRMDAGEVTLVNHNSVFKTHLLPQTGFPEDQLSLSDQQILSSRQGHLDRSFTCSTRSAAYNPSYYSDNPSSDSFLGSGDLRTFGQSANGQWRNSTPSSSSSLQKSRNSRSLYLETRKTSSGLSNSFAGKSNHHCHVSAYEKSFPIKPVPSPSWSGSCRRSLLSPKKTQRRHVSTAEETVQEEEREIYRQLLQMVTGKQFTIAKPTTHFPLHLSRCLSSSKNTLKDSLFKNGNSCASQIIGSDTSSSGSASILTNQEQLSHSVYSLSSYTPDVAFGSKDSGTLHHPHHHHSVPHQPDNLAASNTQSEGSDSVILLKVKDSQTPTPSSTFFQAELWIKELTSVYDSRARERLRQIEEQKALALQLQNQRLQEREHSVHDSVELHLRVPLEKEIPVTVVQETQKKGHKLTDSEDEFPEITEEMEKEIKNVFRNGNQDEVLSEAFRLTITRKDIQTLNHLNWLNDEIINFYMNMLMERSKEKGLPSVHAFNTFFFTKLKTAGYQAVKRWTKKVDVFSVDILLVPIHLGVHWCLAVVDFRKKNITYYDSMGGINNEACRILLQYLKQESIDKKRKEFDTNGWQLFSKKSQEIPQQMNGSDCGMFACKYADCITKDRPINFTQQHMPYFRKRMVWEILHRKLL

[6] = biological target: T1, Sentrin-specific protease 1; assay: Dose response confirmation of small molecule inhibitors of the catalytic domain of the SUMO protease, SENP1 in a FRET assay.; assay type: functional; conditions: read-out: IC50_Mean
[7] = Fluorescence-based cell-based high throughput dose response assay for inhibitors of the interaction of nucleotide-binding oligomerization domain containing 2 (NOD2) and the receptor-interacting serine-threonine kinase 2 (RIPK2).; assay type: functional; conditions: Homo sapiens
[8] = biological target: T2, Mitochondrial peptide methionine sulfoxide reductase (Bos taurus, UniProt P54149); assay type: functional;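 also: absorbance read-out, biochemical high-throughput dose-response screen for MsrA inhibitors, confirmatory; recombinant bovine MsrA coupled to E. coli TrxB with NADPH and selenocystamine; potency is for inhibitors of MsrA activity on DMSO substrate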
T2 sequence (P54149 whole entry): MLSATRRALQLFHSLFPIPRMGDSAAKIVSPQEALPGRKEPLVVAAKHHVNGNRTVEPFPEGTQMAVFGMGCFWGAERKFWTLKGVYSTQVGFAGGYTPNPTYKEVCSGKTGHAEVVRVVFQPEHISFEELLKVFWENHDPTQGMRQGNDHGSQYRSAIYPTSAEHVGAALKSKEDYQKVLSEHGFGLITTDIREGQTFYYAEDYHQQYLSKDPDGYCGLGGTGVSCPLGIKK

[9] = biological target: Palmitoyl-protein thioesterase ABHD10, mitochondrial (Mus musculus, UniProt Q6PE15); assay: Late stage assay provider results from the probe development effort to identify inhibitors of PME-1: fluorescence-based dose response biochemical gel-based competitive Activity-Based Protein Profiling (ABPP) inhibition of ABHD10 Set 2.; assay type: functional
Sequence of Palmitoyl-protein thioesterase ABHD10, mitochondrial (Q6PE15 whole entry): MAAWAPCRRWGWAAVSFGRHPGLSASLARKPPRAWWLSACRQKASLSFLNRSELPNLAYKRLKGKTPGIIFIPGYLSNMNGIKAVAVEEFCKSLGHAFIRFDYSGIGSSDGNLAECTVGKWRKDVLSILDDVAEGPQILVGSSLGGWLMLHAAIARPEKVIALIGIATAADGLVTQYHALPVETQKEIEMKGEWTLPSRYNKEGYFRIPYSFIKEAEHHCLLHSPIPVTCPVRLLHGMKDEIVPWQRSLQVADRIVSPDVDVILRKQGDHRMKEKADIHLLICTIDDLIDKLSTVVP

[10] = test system: Streptococcus sp. 'group A'; assay: growth inhibition of control SK(-) GAS strain, dose response, counter-screen for streptokinase expression inhibitor project, luminescence, kanamycin, BacTiterGlo, confirmation (AID 1900); assay type: functional, organism-based
Streptococcus = assay: Group A Streptococcus viability loss, dose response, counter-screen for streptokinase expression inhibitor project, luminescence, BacTiterGlo (AID 1915); assay type: functional, organism-based;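 also: potency for reduction of bacterial viability or growth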
[11] = biological target: T3, Replicative DNA helicase DnaB (Mycobacterium tuberculosis, UniProt P9WMR3); assay: DnaB intein splicing inhibitors, dose response, biochemical, cell-free fluorescence (AID 449749); assay type: functional
T3 sequence (P9WMR3 whole entry): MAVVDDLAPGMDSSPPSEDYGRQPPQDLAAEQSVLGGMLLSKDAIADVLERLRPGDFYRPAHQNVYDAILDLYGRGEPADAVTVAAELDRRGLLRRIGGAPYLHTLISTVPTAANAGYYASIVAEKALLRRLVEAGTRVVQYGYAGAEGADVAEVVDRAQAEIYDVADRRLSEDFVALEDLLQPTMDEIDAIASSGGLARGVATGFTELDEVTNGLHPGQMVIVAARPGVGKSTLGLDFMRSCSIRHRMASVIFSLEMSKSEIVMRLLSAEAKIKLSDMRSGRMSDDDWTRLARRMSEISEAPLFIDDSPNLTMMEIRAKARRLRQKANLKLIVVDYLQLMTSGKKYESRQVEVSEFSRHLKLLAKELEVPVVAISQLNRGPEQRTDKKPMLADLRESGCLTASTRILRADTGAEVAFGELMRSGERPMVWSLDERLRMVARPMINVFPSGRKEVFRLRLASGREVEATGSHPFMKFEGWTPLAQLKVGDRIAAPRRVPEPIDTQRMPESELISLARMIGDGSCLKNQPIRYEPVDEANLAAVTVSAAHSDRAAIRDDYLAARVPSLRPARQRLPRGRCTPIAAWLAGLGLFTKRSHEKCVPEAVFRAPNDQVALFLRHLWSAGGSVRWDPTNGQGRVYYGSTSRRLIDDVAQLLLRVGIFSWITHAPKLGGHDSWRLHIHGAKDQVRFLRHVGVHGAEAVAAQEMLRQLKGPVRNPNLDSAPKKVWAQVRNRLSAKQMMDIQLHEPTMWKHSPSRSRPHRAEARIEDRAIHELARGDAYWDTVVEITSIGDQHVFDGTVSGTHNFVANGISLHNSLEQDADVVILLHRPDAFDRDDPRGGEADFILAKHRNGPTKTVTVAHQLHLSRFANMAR

[12] = biological target: T4, Apoptotic protease-activating factor 1 (Homo sapiens, UniProt O14727); assay type: functional
T4 sequence (O14727 whole entry): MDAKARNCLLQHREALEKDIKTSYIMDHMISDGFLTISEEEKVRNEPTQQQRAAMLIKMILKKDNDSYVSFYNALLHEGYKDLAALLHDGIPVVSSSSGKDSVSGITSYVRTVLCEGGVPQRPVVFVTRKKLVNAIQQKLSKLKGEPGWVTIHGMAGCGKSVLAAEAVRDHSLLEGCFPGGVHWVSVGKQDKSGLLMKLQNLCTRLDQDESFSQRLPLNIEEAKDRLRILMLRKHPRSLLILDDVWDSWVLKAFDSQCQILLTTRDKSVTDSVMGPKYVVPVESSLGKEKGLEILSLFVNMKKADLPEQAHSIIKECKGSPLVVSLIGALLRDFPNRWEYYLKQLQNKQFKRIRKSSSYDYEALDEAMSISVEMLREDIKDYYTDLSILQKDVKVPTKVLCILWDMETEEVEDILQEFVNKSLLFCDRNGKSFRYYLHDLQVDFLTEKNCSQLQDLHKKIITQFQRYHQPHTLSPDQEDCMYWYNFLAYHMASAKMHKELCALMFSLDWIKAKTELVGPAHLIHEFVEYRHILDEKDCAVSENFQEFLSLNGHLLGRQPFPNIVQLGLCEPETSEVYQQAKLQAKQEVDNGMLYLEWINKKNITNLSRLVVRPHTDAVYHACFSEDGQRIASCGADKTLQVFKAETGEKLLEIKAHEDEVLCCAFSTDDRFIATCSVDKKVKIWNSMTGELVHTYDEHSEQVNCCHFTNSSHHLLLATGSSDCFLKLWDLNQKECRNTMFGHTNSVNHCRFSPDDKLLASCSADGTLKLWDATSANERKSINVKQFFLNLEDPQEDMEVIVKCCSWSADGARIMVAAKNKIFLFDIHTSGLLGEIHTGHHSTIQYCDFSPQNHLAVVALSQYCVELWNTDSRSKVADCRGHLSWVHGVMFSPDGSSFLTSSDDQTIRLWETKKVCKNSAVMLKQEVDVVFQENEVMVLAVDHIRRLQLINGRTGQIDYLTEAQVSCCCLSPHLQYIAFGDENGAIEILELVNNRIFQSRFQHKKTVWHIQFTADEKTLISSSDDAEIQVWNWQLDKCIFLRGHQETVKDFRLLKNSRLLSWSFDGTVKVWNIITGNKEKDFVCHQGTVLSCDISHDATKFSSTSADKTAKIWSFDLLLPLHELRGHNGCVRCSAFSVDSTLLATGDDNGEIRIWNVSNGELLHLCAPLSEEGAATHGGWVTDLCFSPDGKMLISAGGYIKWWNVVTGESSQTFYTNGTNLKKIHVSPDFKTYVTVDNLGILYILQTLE

Protein RecA = biological target: T5, Protein RecA (Mycobacterium tuberculosis, UniProt P9WHJ3); assay: Fluorescence Cell-Free Homogeneous Dose Retest to Identify Inhibitors of RecA-Intein Splicing Activity. [Related pubchem assays (depositor defined):AID2097, AID2223, AID489010, AID492950]; assay type: functional
T5 sequence (P9WHJ3 whole entry): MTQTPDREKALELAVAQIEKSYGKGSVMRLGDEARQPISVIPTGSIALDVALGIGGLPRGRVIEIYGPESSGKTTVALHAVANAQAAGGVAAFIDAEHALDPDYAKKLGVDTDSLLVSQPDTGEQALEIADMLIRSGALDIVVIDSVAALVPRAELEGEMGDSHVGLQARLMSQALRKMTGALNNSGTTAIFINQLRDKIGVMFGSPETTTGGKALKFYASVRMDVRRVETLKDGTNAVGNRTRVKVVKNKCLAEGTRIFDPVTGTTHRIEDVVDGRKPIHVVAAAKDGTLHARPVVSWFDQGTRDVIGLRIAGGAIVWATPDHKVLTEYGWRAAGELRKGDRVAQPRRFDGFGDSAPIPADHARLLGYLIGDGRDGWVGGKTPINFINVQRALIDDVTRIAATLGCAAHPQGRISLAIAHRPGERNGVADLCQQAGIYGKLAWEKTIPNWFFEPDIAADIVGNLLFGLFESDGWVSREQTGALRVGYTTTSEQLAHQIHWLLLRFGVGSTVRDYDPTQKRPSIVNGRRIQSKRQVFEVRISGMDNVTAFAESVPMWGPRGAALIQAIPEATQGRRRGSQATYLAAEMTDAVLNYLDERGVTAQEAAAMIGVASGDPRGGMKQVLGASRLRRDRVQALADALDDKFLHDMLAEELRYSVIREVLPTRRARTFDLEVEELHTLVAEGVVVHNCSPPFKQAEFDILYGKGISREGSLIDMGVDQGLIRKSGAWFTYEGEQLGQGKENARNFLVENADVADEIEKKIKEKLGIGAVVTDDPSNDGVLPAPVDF

INS1 = assay: beta cell apoptosis inhibitors, cytokine rescue, dose response, luminescence, retest (AID 449756); assay type: functional, cell-based; conditions: Rattus norvegicus;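 also: cell death triggered by IL-1 beta plus TNF-alpha plus IFN-gamma mixture; protective hits raise ATP signal compared with cytokine alone wells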
[13] = AlphaScreen signal interference compounds, dose response, artefact control for ARNT-TACC3 interaction inhibitor project, biochemical, luminescence, cherry-pick (AID 651705); assay type: functional;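 also: AlphaScreen bead proximity signal that flags compounds interfering with the detection technology; potency reflects signal decrease which marks the compound as an assay artifact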
[14] = inhibitors of intracellular T. cruzi replication, confirmation, NIH3T3 host cells, beta-gal luminescence (AID 2044); assay type: functional, cell-based;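 also: intracellular parasites grown in NIH/3T3 mouse fibroblasts as host cells; luminescent beta-galactosidase reporter signal from transgenic T. cruzi replicating inside host cells; inhibitors lower the luminescence signal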
[15] = Luminescence Cell-Based Dose Confirmation HTS to Identify Inhibitors of Polyadenylation.; assay type: functional
[16] = cytotoxicity toward NIH3T3 fibroblasts, dose response, counter-screen, cell-based, ATP luminescence, mouse fibroblasts (AID 2010); assay type: functional;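 also: cells exposed to compound for about 90 hours before reading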
[17] = biological target: DNA repair and recombination protein RAD54-like (Homo sapiens, UniProt Q92698); assay: inhibitors of human RAD54 branch migration, confirmation, biochemical, fluorescence, cherry-picked samples, dose series (AID 651657); assay type: functional
Sequence of DNA repair and recombination protein RAD54-like (Q92698 whole entry): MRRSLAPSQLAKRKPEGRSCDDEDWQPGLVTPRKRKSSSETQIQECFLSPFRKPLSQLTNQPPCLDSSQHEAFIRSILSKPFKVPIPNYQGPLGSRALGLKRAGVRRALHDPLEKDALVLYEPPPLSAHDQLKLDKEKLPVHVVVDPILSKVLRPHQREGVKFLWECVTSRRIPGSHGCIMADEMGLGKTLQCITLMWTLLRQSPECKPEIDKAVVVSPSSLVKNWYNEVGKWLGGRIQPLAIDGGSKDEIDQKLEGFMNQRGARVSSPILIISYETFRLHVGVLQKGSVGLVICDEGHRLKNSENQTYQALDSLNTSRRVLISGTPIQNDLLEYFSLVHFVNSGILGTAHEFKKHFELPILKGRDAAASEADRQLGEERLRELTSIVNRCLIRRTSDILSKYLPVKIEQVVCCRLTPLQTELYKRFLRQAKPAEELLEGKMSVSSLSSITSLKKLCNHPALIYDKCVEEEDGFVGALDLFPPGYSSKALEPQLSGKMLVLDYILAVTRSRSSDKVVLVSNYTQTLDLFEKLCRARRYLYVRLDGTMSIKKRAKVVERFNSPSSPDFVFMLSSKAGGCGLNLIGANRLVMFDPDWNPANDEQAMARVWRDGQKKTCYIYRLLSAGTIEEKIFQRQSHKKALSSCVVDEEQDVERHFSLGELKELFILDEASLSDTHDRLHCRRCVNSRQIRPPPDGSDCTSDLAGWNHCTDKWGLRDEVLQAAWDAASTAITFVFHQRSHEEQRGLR

[18] = biological target: T6, DNA repair protein RAD52 homolog (Homo sapiens, UniProt P43351); assay type: functional, biochemical
T6 sequence (P43351 whole entry): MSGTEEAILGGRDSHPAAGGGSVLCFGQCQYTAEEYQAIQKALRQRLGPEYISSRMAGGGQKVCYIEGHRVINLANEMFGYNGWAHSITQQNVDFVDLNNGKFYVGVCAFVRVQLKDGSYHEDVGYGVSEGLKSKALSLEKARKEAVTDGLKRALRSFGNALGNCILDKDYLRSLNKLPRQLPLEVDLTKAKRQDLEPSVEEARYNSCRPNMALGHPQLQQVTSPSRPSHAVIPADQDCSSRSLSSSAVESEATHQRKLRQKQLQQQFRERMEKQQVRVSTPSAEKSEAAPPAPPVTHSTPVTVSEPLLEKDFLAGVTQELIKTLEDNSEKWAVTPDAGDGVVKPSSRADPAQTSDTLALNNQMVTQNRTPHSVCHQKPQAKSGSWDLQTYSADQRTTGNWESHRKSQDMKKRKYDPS

CC1=CC2C(C(O)CC3(C)C2CC(C)C32OCOC23COCO3)C2(C)CC(C=O)=C(O)C=C12 (configuration not stated)
AC50 [1]: 4.34 µM (active) | IC50 [2]: 11 µM (inactive)

COc1ccc(OC)c(NC(=O)c2ccccc2NC(=O)c2ccco2)c1
IC50 [3]: 24 µM (inactive) | IC50 (Steroidogenic factor 1): 11.4 µM (inactive) | IC50 [4]: 35.9 µM (inactive)

O=C1c2cc(CO)cc(O)c2C(=O)c2c(O[C@@H]3OC(CO)[C@@H](O)[C@@H](O)[C@@H]3O)cccc21 (some centres not stated)
IC50 [5]: 22.1 µM (inactive) | IC50 [6]: 17.4 µM (active)

Cn1cnc([N+](=O)[O-])c1S(=O)(=O)Oc1ccc(Cl)cc1
IC50 [7]: 4.09 µM (active) | IC50 [8]: 42.8 µM (inactive)

CCOC(=O)N1C(=O)[C@@](CC)(c2cccc(C)c2)N1C(=O)OCC
IC50 [9]: 0.06 µM (active)

Cc1[nH]n(-c2ccccc2)c(=O)c1/C=N\NC(=O)C1COc2ccccc2O1 (configuration not stated)
EC50 [10]: 1.36 µM (active) | EC50 (Streptococcus): 8.94 µM (active) | AC50 [11]: 40.9 µM (active) | IC50 [12]: 8.83 µM (active) | EC50 (Protein RecA): 17.5 µM (active) | AC50 (INS1): 5.03 µM (active) | AC50 [13]: 104 µM (active)

COc1ccc(OC)c(Nc2nc(NCCO)c3ccccc3n2)c1
EC50 [14]: 2.1 µM (active) | EC50 [15]: > 120 µM (not active) | EC50 [16]: > 30 µM (not active) | AC50 [17]: 11.6 µM (active) | AC50 [18]: 4.32 µM (active)
